From ChEMBL document CHEMBL4507281, “Data for DCP probe BI-4394” (2021)

Legend:
Conditions in all cases: Compound concentration 10.0 uM
[1] = biological target: Alpha-1A adrenergic receptor (Homo sapiens) (UniProt P35348)
[2] = biological target: Tyrosine-protein kinase ABL1 (Homo sapiens) (UniProt P00519)
[3] = biological target: AMP-activated protein kinase (AMPK) alpha-1/beta-1/gamma-1 (Homo sapiens) (UniProt P54619+Q9Y478+Q13131)
[4] = biological target: Ephrin type-A receptor 2 (Homo sapiens) (UniProt P29317)
[5] = biological target: Dual specificity mitogen-activated protein kinase kinase 1 (Homo sapiens) (UniProt Q02750)
Sequence of Dual specificity mitogen-activated protein kinase kinase 1 (Homo sapiens) (Q02750 whole entry): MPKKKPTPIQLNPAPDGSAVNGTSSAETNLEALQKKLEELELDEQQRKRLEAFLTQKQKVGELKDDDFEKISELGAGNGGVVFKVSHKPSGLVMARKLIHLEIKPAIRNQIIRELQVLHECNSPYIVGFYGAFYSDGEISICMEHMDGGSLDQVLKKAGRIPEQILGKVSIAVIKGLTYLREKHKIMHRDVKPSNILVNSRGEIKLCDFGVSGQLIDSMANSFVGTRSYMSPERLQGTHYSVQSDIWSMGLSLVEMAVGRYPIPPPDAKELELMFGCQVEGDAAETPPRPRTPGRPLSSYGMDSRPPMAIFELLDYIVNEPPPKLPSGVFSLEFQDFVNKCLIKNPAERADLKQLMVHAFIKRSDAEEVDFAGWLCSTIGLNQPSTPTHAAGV

[6] = biological target: Mitogen-activated protein kinase 1 (Homo sapiens) (UniProt P28482)
Sequence of Mitogen-activated protein kinase 1 (Homo sapiens) (P28482 whole entry): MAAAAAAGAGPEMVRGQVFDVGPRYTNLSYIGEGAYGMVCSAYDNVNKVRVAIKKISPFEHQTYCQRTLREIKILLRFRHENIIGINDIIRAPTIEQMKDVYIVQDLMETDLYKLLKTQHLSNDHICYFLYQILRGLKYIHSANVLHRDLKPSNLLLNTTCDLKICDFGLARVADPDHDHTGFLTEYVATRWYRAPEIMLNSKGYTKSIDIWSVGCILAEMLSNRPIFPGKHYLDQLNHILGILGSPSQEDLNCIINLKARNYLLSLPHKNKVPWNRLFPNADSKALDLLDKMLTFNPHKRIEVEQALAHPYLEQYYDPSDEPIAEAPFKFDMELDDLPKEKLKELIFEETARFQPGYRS

[7] = biological target: T1, Serine/threonine-protein kinase Nek1 (Homo sapiens) (UniProt Q96PY6)
T1 sequence (whole entry): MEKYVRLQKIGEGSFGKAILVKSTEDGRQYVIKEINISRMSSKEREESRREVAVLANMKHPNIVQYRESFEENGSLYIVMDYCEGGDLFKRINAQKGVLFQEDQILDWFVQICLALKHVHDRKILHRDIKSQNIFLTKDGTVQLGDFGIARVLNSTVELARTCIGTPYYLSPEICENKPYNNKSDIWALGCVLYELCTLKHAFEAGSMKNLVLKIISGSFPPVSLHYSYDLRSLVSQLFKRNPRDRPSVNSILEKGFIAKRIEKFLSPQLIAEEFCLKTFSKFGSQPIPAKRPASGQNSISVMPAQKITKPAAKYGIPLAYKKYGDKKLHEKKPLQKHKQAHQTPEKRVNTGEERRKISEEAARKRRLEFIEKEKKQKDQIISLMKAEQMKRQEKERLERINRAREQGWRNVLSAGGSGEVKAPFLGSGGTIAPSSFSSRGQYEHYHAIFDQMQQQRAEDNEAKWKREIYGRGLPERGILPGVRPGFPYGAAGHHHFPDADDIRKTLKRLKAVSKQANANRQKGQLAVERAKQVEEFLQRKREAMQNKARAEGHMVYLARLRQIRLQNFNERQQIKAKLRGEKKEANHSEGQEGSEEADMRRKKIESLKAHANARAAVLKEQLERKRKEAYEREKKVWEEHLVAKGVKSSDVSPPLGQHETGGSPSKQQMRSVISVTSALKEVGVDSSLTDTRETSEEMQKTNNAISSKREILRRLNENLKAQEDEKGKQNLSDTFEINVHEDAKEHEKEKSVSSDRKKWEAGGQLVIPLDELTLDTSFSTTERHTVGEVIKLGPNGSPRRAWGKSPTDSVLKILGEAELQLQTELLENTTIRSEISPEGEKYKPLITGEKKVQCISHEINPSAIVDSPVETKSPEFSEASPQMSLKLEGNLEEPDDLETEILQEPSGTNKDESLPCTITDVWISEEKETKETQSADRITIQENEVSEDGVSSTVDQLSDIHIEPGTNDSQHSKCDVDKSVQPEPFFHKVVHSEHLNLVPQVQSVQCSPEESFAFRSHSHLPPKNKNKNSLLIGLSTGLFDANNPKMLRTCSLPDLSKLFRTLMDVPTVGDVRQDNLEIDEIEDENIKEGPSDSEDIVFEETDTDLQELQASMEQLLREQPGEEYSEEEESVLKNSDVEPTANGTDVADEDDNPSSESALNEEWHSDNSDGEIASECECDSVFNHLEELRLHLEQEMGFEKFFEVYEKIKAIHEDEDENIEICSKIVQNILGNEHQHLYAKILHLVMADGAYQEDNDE

[8] = biological target: T2, Phosphorylase b kinase regulatory subunit alpha, liver isoform (Homo sapiens) (UniProt P46019)
T2 sequence (whole entry): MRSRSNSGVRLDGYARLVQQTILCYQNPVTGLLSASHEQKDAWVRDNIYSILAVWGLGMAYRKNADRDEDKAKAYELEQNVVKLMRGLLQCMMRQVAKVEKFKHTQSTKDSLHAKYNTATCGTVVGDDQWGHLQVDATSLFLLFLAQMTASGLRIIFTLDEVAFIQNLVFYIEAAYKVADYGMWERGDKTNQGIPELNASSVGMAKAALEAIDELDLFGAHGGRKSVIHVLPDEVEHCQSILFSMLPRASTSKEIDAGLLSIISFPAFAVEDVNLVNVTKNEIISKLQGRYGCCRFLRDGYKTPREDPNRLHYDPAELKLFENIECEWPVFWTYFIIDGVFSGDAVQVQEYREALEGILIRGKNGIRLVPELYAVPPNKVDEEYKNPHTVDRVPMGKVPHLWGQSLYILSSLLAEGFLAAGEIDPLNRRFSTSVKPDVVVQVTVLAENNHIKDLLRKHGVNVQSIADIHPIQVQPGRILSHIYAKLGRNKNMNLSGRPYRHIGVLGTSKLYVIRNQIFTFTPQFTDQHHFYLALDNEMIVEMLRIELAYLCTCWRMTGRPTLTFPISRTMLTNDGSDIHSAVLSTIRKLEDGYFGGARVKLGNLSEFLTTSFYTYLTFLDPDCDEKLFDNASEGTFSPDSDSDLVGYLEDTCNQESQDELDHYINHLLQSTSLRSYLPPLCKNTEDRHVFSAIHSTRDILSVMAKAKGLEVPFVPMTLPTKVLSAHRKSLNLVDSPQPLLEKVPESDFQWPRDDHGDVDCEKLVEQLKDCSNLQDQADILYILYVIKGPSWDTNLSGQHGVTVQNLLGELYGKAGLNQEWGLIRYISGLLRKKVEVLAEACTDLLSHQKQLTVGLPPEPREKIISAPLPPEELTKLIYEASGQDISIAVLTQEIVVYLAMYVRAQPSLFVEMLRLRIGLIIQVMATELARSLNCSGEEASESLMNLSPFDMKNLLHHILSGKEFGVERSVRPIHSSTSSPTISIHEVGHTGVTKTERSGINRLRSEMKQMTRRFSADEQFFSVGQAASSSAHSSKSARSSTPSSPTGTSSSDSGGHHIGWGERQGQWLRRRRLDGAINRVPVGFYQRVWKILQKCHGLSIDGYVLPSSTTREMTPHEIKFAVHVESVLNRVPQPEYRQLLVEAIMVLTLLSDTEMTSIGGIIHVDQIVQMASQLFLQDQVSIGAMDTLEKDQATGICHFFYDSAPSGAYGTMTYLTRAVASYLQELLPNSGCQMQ

[9] = biological target: Proto-oncogene tyrosine-protein kinase receptor Ret (Homo sapiens) (UniProt P07949)
Sequence of Proto-oncogene tyrosine-protein kinase receptor Ret (Homo sapiens) (P07949 whole entry): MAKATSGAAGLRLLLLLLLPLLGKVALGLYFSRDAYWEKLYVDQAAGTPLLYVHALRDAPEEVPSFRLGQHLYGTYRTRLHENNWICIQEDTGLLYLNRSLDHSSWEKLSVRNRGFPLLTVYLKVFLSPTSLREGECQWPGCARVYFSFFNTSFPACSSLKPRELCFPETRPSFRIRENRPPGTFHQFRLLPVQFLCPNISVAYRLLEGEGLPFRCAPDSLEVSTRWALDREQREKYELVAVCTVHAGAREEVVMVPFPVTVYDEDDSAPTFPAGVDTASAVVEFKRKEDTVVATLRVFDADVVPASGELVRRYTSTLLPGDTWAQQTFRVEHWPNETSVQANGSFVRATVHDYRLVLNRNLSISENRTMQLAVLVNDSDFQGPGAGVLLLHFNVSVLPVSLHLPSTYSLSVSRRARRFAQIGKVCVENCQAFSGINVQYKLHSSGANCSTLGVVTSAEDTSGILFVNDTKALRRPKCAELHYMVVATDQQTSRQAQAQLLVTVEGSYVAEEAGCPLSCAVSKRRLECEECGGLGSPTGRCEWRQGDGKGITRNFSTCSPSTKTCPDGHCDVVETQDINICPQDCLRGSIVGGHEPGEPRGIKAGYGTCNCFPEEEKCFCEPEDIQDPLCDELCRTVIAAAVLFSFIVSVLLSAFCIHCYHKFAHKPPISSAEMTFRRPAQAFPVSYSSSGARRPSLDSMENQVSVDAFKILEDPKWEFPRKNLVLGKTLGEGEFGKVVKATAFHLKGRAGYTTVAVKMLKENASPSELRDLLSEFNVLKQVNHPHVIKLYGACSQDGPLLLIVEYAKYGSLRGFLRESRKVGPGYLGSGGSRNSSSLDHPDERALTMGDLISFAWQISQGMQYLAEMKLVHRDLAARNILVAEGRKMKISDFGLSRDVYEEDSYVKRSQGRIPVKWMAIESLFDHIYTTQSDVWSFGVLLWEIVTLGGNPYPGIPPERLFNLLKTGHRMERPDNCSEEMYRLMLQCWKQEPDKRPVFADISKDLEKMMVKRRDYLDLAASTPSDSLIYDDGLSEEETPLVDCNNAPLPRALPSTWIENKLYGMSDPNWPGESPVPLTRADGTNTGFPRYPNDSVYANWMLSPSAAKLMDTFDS

[10] = biological target: Tyrosine-protein kinase SYK (Homo sapiens) (UniProt P43405)
[11] = biological target: Angiopoietin-1 receptor (Homo sapiens) (UniProt Q02763)
Sequence of Angiopoietin-1 receptor (Homo sapiens) (Q02763 whole entry): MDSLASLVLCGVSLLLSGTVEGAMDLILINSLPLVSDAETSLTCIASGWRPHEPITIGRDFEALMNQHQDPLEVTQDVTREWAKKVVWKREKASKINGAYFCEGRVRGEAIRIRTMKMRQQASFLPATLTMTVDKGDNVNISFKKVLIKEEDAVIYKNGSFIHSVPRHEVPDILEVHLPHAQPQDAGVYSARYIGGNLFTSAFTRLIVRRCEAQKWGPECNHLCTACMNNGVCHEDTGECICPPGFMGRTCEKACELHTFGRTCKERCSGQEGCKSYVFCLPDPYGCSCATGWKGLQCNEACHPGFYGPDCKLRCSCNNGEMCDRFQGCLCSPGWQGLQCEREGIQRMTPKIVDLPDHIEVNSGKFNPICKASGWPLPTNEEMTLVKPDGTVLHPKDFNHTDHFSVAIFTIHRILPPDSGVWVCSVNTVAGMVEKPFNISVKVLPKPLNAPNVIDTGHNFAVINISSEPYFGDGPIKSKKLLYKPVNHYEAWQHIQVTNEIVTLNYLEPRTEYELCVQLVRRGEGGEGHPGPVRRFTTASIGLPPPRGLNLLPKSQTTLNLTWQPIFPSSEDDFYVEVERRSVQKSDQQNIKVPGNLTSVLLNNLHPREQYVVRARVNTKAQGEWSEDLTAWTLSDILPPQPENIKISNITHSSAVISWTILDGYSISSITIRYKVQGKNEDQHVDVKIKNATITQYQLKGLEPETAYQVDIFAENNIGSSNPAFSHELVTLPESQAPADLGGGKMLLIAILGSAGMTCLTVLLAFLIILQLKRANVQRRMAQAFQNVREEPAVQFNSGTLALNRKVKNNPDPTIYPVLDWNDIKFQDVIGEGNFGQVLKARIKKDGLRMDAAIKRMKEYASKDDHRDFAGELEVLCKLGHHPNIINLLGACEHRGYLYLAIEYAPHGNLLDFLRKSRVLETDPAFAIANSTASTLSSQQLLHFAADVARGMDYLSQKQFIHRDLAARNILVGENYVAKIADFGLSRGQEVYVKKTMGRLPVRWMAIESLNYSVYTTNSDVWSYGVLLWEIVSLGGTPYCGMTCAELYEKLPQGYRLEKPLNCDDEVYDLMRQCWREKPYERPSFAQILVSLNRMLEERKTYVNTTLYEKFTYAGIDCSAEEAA

Sequence of Alpha-1A adrenergic receptor (Homo sapiens) (P35348 whole entry): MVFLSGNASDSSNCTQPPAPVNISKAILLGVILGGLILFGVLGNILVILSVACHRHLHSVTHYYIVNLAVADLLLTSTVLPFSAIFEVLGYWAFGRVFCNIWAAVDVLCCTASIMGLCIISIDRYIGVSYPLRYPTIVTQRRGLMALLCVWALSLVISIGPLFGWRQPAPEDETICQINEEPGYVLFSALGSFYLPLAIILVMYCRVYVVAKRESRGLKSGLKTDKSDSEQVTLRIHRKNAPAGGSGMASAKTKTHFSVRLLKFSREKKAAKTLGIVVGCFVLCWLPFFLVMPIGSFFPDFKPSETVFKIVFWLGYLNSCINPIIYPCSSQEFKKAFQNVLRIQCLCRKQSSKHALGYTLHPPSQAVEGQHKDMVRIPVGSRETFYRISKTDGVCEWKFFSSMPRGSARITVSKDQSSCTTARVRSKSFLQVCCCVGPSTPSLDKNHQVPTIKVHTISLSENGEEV
Sequence of AMP-activated protein kinase (AMPK) alpha-1/beta-1/gamma-1 (Homo sapiens) (P54619 whole entry): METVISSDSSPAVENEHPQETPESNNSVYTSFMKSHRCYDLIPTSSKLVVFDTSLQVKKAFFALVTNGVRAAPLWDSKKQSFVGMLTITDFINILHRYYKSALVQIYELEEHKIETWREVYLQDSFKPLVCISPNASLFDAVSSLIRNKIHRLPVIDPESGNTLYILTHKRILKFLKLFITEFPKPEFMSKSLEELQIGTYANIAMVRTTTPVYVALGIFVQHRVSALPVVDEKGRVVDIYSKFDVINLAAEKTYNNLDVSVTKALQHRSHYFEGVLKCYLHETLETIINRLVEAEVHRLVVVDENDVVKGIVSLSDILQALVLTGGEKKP
Sequence of AMP-activated protein kinase (AMPK) alpha-1/beta-1/gamma-1 (Homo sapiens) (Q13131 whole entry partner): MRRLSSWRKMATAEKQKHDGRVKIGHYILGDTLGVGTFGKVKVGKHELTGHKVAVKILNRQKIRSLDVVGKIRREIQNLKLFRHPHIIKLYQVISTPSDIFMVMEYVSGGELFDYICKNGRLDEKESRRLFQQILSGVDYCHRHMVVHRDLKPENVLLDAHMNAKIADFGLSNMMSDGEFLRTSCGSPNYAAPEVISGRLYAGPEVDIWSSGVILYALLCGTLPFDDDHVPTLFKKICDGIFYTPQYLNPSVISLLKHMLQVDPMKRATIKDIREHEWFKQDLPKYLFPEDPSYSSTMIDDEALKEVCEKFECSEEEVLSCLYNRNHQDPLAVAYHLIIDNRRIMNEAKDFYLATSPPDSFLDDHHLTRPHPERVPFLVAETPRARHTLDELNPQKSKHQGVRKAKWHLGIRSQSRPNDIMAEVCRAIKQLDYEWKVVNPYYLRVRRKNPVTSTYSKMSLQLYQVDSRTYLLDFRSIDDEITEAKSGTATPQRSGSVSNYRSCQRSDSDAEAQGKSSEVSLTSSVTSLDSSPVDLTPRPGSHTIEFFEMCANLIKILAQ
Sequence of AMP-activated protein kinase (AMPK) alpha-1/beta-1/gamma-1 (Homo sapiens) (Q9Y478 2-270 partner limits assumed): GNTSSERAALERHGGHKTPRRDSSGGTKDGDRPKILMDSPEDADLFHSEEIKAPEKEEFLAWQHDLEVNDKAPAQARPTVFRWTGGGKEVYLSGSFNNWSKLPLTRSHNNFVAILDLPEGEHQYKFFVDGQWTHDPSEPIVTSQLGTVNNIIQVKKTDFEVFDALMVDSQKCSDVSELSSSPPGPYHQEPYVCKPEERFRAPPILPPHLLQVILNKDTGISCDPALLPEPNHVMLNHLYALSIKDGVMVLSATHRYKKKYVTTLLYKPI

For `CCOC(=O)c1cc2cc(-c3cc(C(=O)NCc4ccc(C(=O)O)cc4)nn3C)ccc2[nH]1` [BI 4394], the inhibition [1] was -6.15%, the residual activity [2] was 48% and the residual activity [3] was 8%. The residual activity [4] was 85%, the residual activity [5] was 78% and the residual activity [6] was 84%. The residual activity [7] was 49%, the residual activity [8] was 82% and the residual activity [9] was 64%. The residual activity [10] was 56% and the residual activity [11] was 85%.
